Assay type in all cases: functional; call rule not given here
The species entered for test [1] is Homo sapiens. The test can be described thus: The antiplatelet activity was tested by the turbidimetric method in washed human platelets using thrombin as agonist.
The species named for test [2] is Homo sapiens. The test can be described thus: The antiplatelet activity by the turbidimetric method in washed human platelets using thrombin as agonist; Precipitates under the conditions of the study.
The species named for test [3] is Homo sapiens. The test can be described thus: The antiplatelet activity by the turbidimetric method in washed human platelets using thrombin as agonist; Promotes platelet aggregation.
The species entered for test [4] is Homo sapiens. The test can be described thus: The antiplatelet activity by the turbidimetric method in washed human platelets using thrombin as agonist; NA is inactive.

For orientation: IC50 means the midpoint of a concentration-inhibition curve. Low readings indicate inhibition by little substance, high ones a need for much substance. Regarding `OCCCC#Cc1cc(O)nnc1-c1ccccc1`, the IC50 in test [1] is above 1000 µM.

In the case of `OCC#Cc1cc(O)nnc1-c1ccccc1`, the half-maximal inhibitory concentration (IC50) in test [1] is above 1000 µM.

In turn, `Oc1cc(-c2ccco2)c(-c2ccccc2)nn1` displayed an IC50 in test [1] of 635 µM.

In turn, `CCOC(C#Cc1cc(O)nnc1-c1ccccc1)OCC` displayed an IC50 in test [1] above 1000 µM.

As for `COCCOC(=O)/C=C/c1cc(O)nnc1-c1ccccc1`, the half-maximal inhibitory concentration (IC50) in test [1] is above 1000 µM.

Consider `Cc1ccc(-c2cc(O)nnc2-c2ccccc2)cc1`, for which, in test [1], the half-inhibitory concentration (IC50) worked out at 152 µM.

For `Oc1cc(-c2ccccc2)c(-c2ccccc2)nn1`, in test [2], the IC50 entry is given as “Precipitates under the conditions of the study”.

For the compound `Oc1cc(Oc2ccccc2)c(-c2ccccc2)nn1`, in test [3], the half-inhibitory concentration (IC50) entry is “Promotes platelet aggregation”.

On to `N#C/C=C/c1cc(=O)[nH]nc1-c1ccccc1`, for which, in test [1], the half-inhibitory concentration (IC50) was above 1000 µM.

`C#Cc1cc(O)nnc1-c1ccccc1` gave an IC50 in test [1] of 500 µM.

With `COC(=O)/C=C/c1cc(O)nnc1-c1ccccc1`, the 50% inhibitory concentration (IC50) in test [1] is above 1000 µM.

`Oc1cc(Sc2ccccc2)c(-c2ccccc2)nn1` gave a half-maximal inhibitory concentration (IC50) in test [1] of 15 µM.

`OCCC#Cc1cc(O)nnc1-c1ccccc1` yielded an IC50 in test [1] above 2000 µM.

As for `Oc1cc(-c2ccc(Cl)cc2)c(-c2ccccc2)nn1`, the IC50 result in test [2] is “Precipitates under the conditions of the study”.

In the case of `CCOC(=O)/C=C/c1cc(=O)[nH]nc1-c1ccccc1`, in test [4], the IC50 entry is “Not Active”.

For the compound `O=C(/C=C/c1cc(=O)[nH]nc1-c1ccccc1)c1ccccc1`, the half-inhibitory concentration (IC50) in test [1] was found to be 25 µM.

In the case of `COC(=O)C(=Cc1cc(=O)[nH]nc1-c1ccccc1)C(=O)OC`, the IC50 in test [1] was determined as 45 µM.

For the compound `CCOC(=O)C(=Cc1cc(=O)[nH]nc1-c1ccccc1)C(=O)OCC`, the half-maximal inhibitory concentration (IC50) in test [1] was 20 µM.

Regarding `O=c1cc(/C=C/c2ccccc2)c(-c2ccccc2)n[nH]1`, the IC50 result in test [4] is given as “Not Active”.

For the compound `O=Cc1ccc(-c2cc(O)nnc2-c2ccccc2)cc1`, the half-inhibitory concentration (IC50) entry in test [2] is given as “Precipitates under the conditions of the study”.

Regarding `O=C1C(CC[S+]([O-])c2ccccc2)C(=O)N(c2ccccc2)N1c1ccccc1` (stereo unspecified) [SULFINPYRAZONE], the IC50 in test [1] was 500 µM.

For the origin of these results see ChEMBL document CHEMBL1146821, “Pyridazines. Part 36: Synthesis and antiplatelet activity of 5-substituted-6-phenyl-3(2H)-pyridazinones” (Bioorg Med Chem Lett, 2004).
